One data set relates to mouse estrogen receptor. As to conditions: Fawell, S. E., et al. (1990); cited from earlier work.
The subject of data set [1] is MCF-7 human breast tumor cells. Kind of data set: Clonigenic assay for MCF-7 human breast tumor cells. It is filed as cell-based. As to conditions: for Colonies ± S.D.: 24 hours treatment, grown 22 days. As to the method: MCF-7 cells (10^7) are added to 100 mm tissue culture dishes, allowed to adhere for 24 hours and then treated with either MDL 101,906 or ICI 164,384 for 24 hours. The cells are removed from the dishes with trypsin/EDTA, and washed twice by centrifugation. The cells were counted and 500 cells from each treatment group are added to triplicate wells of 6-well culture dishes. The cells are grown for 22 days. Colonies 1 mm diameter or greater are counted.

Data set [2] concerns hormone-dependent breast cancer. The note with it: cited from earlier work.
Another data set has as its system GAPDH mRNA. The data set can be described thus: GAPDH mRNA levels in treated MCF-7 human breast tumor cells (positive control probe).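 Note: Phosphoimager intensity of radioactive mRNA bands.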 It is filed as cell-based. The note with it: 30 μM, 24 hr. As to the method: (§1) After treatment with 30 μM drug for 24 hr, total RNA is isolated according to the guanidinium isothiocyanate method using an RNA preparation kit from 5 Prime-3 Prime, Inc., following the manufacturer's instructions. The RNA is separated by formaldehyde gel electrophoresis and transferred to a nylon membrane.

In another data set the target is T1, estrogen receptors (Homo sapiens, UniProt P03372).
T1 construct: estrogen receptor extracted from MCF-7 human breast tumor cells; endogenous in cells; host or cells: MCF-7 human breast cancer cells (nuclear extract, cytosol or whole cell extract)
T1 sequence (P03372 1-595): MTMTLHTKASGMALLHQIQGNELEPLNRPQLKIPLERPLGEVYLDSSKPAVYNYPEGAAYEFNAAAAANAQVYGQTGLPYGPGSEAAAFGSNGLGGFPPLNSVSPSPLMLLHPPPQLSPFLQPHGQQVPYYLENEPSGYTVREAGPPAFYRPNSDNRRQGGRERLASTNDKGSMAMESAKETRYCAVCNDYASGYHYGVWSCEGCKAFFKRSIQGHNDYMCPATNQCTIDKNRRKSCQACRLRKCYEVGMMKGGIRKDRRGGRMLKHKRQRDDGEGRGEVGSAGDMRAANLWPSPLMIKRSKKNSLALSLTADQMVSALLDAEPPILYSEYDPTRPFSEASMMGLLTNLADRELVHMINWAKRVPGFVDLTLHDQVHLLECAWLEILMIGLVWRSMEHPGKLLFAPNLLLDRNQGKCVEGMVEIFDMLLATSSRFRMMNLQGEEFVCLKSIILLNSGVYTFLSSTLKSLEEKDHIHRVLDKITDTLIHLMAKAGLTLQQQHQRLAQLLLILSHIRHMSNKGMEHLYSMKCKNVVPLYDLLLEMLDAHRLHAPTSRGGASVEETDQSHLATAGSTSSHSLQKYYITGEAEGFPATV
The data set can be described thus: Quantification of estrogen receptors in nuclear and whole cell extracts (ER-EIA monoclonal kit), Table 1. It is filed as cell-based, human (MCF-7 human breast cancer cells). The note with it: estrogen receptors in nuclear extracts. As to the method: (§2) Monolayers of MCF-7 human breast cancer cells are rinsed once with HBSS and scraped off culture dishes into 15 ml conical tubes with 5 ml HBSS. The cells are sedimented by centrifugation at 250×g for five minutes, suspended in 1 ml HBSS and sedimented by centrifugation at 2000 rpm in a tabletop centrifuge for five minutes in a 1.5 ml microfuge tube. Two PCV of a solution of a lysis buffer (25 mM HEPES, pH 7.8, 50 mM KCl, 0.5% Nonidet P 40, 2 mM dithiothreitol, 0.2 mM phenylmethylsulfonyl fluoride, 0.05 mg/ml leupeptin, 0.05 mg/ml aprotinin, 0.0025 mg/ml pepstatin, 0.005 mg/ml antipain) are added and cells are kept on ice for 15 minutes. Lysed cells are centrifuged for 3 minutes at 10,000×g, supernatant decanted, and kept as the cytosol fraction. Pellets are suspended in two PCV of extraction buffer (25 mM HEPES, pH 7.8, 500 mM KCl, 10% glycerol, 2 mM dithiothreitol and the above protease inhibitors), mixed for 20 minutes by inversion at 4 degrees C. and centrifuged at 10,000×g for 20 minutes. The supernatant is decanted and saved as nuclear extract. Both the nuclear extract and the cytosol are dialyzed for two hours against dialysis buffer (25 mM HEPES, pH 7.8, 50 mM KCl, 10% glycerol, 2 mM dithiothreitol and the above protease inhibitors). Nuclear and cytosol fractions are stored frozen at -80 degrees C. until used for mobility shift assays or determination of estrogen receptor content.
Whole cell extracts of tumor cells are prepared by the method of Reese and Katzenellenbogen, Nuc. Acids Res., 19: 6595-6602 (1991), with some modifications. Cell monolayers are rinsed once with HBSS, then scraped into HBSS and sedimented by centrifugation (5 min., 250×g). After resuspending in 1 mL HBSS, the cells are again sedimented at 250×g for 5 min at 4° C. The cell pellet is resuspended in lysis/extract buffer containing 20 mM Tris, pH 7.5, 10% glycerol (v/v), 0.5M sodium chloride and 0.5% NP-40 (v/v) and incubated on ice for 25 minutes, then the supernatants are dialyzed against 25 mM HEPES, pH 7.8, 10% glycerol (v/v), 0.5 mM dithiothreitol and 50 mM potassium chloride for 2 hours at 4° C. Both the lysis/extraction and the dialysis buffers contain protease inhibitors which included 0.5 mM phenylmethylsulfonylfluoride, 0.05 mg/mL leupeptin, 0.05 mg/mL aprotinin, 0.00-25 mg/mL pepstatin, and 0.005 mg/mL antipain. Dialyzed whole cell extracts are stored in aliquots at -80° C. until used.
The protein concentration for nucleus and cytosol fractions are determined with a BIO-RAD kit, according to the manufacturer's instructions.
Estrogen receptor levels in nuclear and whole cell extracts of tumor cells were quanitated using the ER-EIA monoclonal kit manufactured by Abbott Laboratories (Diagnostic Division) according to the kit instructions.
receptors in nuclear extracts.
.dagger.WCE refers to IC50 value for estrogen receptors in whole cel
A slash dividing two numbers indicates the results of two separate

A further data set deals with T2, MCF-7 estrogen receptor (Homo sapiens, UniProt P03372).
T2 construct: estrogen receptor extracted from MCF-7 human breast tumor cells; endogenous in cells; host or cells: MCF-7 human breast cancer cells (nuclear extract, cytosol or whole cell extract)
T2 sequence (P03372 1-595): T1 sequence (P03372 1-595)
Kind of data set: Competitive binding assay, Relative Binding Affinities on binding of estradiol to MCF-7 estrogen receptor. As to the method: Briefly, RBAs are determined from competitive binding assays with several concentrations of estradiol (E2) with and without test compound. After 16-18 hours of incubation at 4 degrees C., unbound [^3 H] E2 is separated from ER-bound [^3 H] E2. The IC50 is determined and the RBA is calculated as: […]

The subject of another data set is estrogen receptor mRNA. The data set can be described thus: Reduction of estrogen receptor mRNA levels in treated MCF-7 human breast tumor cells.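 For Estrogen Receptor mRNA band intensity: Phosphoimager intensity of radioactive mRNA bands.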 It is filed as cell-based. As to the method: as §1
In data set [3] the target is T3, estrogen receptor binding to an estrogen response element (Homo sapiens, UniProt P03372).
T3 construct: estrogen receptor extracted from MCF-7 human breast tumor cells; endogenous in cells; host or cells: MCF-7 human breast cancer cells (nuclear extract, cytosol or whole cell extract)
T3 sequence (P03372 1-595): T1 sequence (P03372 1-595)
The data set can be described thus: Inhibition of estrogen receptor binding to an estrogen response element in DNA mobility shift assays. It is filed as biochemical, human (nuclear extract of MCF-7 human breast cancer cells). As to the method: as §2
Briefly, to each reaction tube was added 0.01 mg nuclear extract, 2 μg poly dIdC, 50 mM NaCl, 1 mM dithiothreitol and 10 mM Tris, pH 7.5 in a total volume of 0.01 ml and the mixture was kept at room temperature for 10 minutes. A ^32 P-labelled estrogen response element [ERE]

The mark [4] stands for this setting: read-out: integrated volume of shifted ERE oligo as percentage of control, given as % inhibition.

Where “and” joins values, the source holds several entries; their conditions need not be identical. Identical values can stand only once.

With `CCCCN(C)C(=O)CCCCCCCCCC[C@@H]1Cc2cc(O)ccc2[C@H]2CC[C@]3(C)[C@@H](O)CC[C@H]3[C@H]12` [ICI 164,384, 11-(3-17β-dihydroxyoestra-1,3,-5(10)-trien-7α-yl)-N-n-butyl-N-methylundecanamide, reference compound], in the data set on mouse estrogen receptor, the “inhibition of DNA binding of the mouse estrogen receptor” value was “inhibit DNA binding of the mouse estrogen receptor by interfering with receptor dimerization”. For the same compound, the “Colonies ± S.D.” value in data set [1] (0.1 μM) was determined as 48 ± 6; in data set [1] (1.0 μM), 40 ± 2. Moreover, the activity at 0.1 µM in data set [1] (Homo sapiens, MCF7, 528 h, 0.1 μM, read-out: Colonies, % Control) is 145%. In addition, in data set [1] (Homo sapiens, MCF7, 528 h, 1.0 μM, read-out: Colonies, % Control), the activity at 1 µM stood at 121%.

In the case of `CC/C(=C(\c1ccccc1)c1ccc(OCCN(C)C)cc1)c1ccccc1` [tamoxifen], in data set [2] (Maass, H., et al., Cancer, 46:2783 (1980)), the “patients who do not respond to tamoxifen treatment despite presence of ERs in the malignant tissue” value is recorded as “About 40%”. For the same compound, the “toxicological problems associated with tamoxifen treatment” value in data set [2] (in vivo) is “tumor flares, vaginal cornification and hypercalciemia”.

For orientation: IC50 means the concentration at which inhibition is half-maximal. `CCCCN(C)C(=O)CCCCCCCNC(=O)Cc1c(-c2ccc(O)cc2)n(Cc2ccccc2)c2ccc(O)cc12` [MDL 103,324, 8-[[5-Hydroxy-1-benzyl-2-[(4-hydroxy)-phenyl]-1H-indol-3-yl]-acetylamino]-octanoic acid methyl-butyl-amide]: the “GAPDH mRNA band intensity” value with GAPDH mRNA (replicate 1) is recorded as 8,300. Further, the “GAPDH mRNA band intensity” value in the data set on GAPDH mRNA (replicate 2) is given as 8,118. The same compound gave an IC50 against estrogen receptors of 18 µM. The “inhibition of estradiol binding to MCF-7 ER” value at MCF-7 estrogen receptor (doses of 100 or 200 nM) is listed as “did not significantly inhibit”. Moreover, the “inhibition of estradiol binding to MCF-7 ER” value on MCF-7 estrogen receptor (typically, at doses of 100 or 200 nM) is given as “less than 10%”. This compound also had an ER/GAPDH mean in the data set with estrogen receptor mRNA (30 μM, 24 hr, mean of replicates 1 and 2) of 0.74. In addition, in the data set on estrogen receptor mRNA (30 μM, 24 hr, replicate 1), the ER/GAPDH is recorded as 0.61 and the “Estrogen Receptor mRNA band intensity” value is given as 5,128. Besides, in the data set with estrogen receptor mRNA (30 μM, 24 hr, replicate 2), the ER/GAPDH is 0.87 and the “Estrogen Receptor mRNA band intensity” value was 7,077. Moreover, in the data set with estrogen receptor mRNA (Homo sapiens, MCF7, 24 h, read-out: ER/GAPDH % Control), the activity at 30 µM was determined as 20%. Besides, the half-inhibitory concentration (IC50) in data set [3] was 8.5 µM and 18 µM. In addition, in data set [3] (setting [4]), the inhibition at 2 µM was found to be 60%, the inhibition at 5 µM was 68%, the inhibition at 10 µM worked out at 58% and the inhibition at 20 µM stood at 46%. Further, in data set [3] (setting [4]), the inhibition at 30 µM came out at 50%.

These data come from patent US5877202A, “Indole derivatives useful to treat estrogen-related neoplasms and disorders” (priority 1996, dated 1999).
